# From US4988687A, “Cephalosporin derivatives, and antibacterial agents” (priority 1986, dated 1991)
# Where two headings read alike, the source gives them in different places.
# Columns and labels:
# [1] = tested on: S. aureus 209P NIHJ-JC1; experiment: agar plate dilution method, MIC against S. aureus 209P NIHJ-JC1; format: cell-based; details: Staphylococcus aureus; S. aureus 209P NIHJ-JC1; 10^6 CFU/ml, Mueller Hinton agar, 37° C., 16 hours; read-out: Minimum Inhibitory Concentration (MIC)
# Method: (§1) The in vitro antibacterial activities of the compounds of the present invention against various microorganisms, were measured by the following agar plate dilution method. One platinum loopfull of each test microorganism incubated overnight in Mueller Hinton broth, was inoculated to Mueller Hinton agar (inoculum size: 10^6 CFU/ml) Such culture media containing various antibiotics in various concentrations were prepared After incubation at 37° C. for 16 hours, the minimum inhibitory concentrations (MIC: μg/ml) were measured. As comparative compounds, cefotaxime, oeftazidime and the compounds disclosed in Example 2 of Japanese Unexamined Patent Publication No. 215690/1985 e.g. sodium 7-[2-(2-aminothiazol-4-yl)-2-ethoxyiminoacetamido]-3-(1-carboxylatemethylpyridinio-4-yl)thiomethyl-3-cephem-4-carboxylate (hereinafter referred to simply as "Reference Example A") were employed.
# [2] = tested on: Ps. aeruginosa AKR17; experiment: agar plate dilution method, MIC against Ps. aeruginosa AKR17; format: cell-based; details: Pseudomonas aeruginosa; Ps. aeruginosa AKR17; 10^6 CFU/ml, 37° C., 16 hours; read-out: Minimum Inhibitory Concentration (MIC)
# Method: as §1
# [3] = tested on: Ps. aeruginosa AK 109; experiment: agar plate dilution method, MIC against Ps. aeruginosa AK 109; format: cell-based; details: Pseudomonas aeruginosa, read-out: Minimum Inhibitory Concentration (MIC)
# Method: as §1
# [4] = tested on: E. coli NIHJ JC2; experiment: agar plate dilution method, MIC against E. coli NIHJ JC2; format: cell-based; details: Escherichia coli, NIHJJC2; E. coli NIHJ JC2; 10^6 CFU/ml, 37° C., 16 hours; read-out: Minimum Inhibitory Concentration (MIC)
# Method: as §1
# [5] = tested on: K. oxytoca GN10650; experiment: agar plate dilution method, MIC against K. oxytoca GN10650; format: cell-based; details: Klebsiella oxytoca; K. oxytoca GN10650 (lactamase-producing strain); 10^6 CFU/ml, 37° C., 16 hours; read-out: Minimum Inhibitory Concentration (MIC)
# Method: as §1
# [6] = tested on: K. pneumoniae No. 42; experiment: agar plate dilution method, MIC against K. pneumoniae No. 42; format: cell-based; details: Klebsiella pneumoniae; K. pneumoniae No. 42 (lactamase-producing strain); 10^6 CFU/ml, 37° C., 16 hours; read-out: Minimum Inhibitory Concentration (MIC)
# Method: as §1
# [7] = tested on: C. freundii GN346/16; experiment: agar plate dilution method, MIC against C. freundii GN346/16; format: cell-based; details: Citrobacter freundii, read-out: Minimum Inhibitory Concentration (MIC)
# Method: as §1
# [8] = tested on: Ps. maltophilia GN 12873; experiment: agar plate dilution method, MIC against Ps. maltophilia GN 12873; format: cell-based, Pseudomonas maltophilia; details: Stenotrophomonas maltophilia, GN12873; Ps. maltophilia GN 12873 (lactamase-producing strain); 10^6 CFU/ml, 37° C., 16 hours; read-out: Minimum Inhibitory Concentration (MIC)
# Method: as §1
# [9] = tested on: S. marcescens IAM 1184; experiment: agar plate dilution method, MIC against S. marcescens IAM 1184; format: cell-based; details: Serratia marcescens, IAM1184; S. marcescens IAM 1184; 10^6 CFU/ml, 37° C., 16 hours; read-out: Minimum Inhibitory Concentration (MIC)
# Method: as §1
# [10] = tested on: C. freundii GN346; experiment: agar plate dilution method, MIC against C. freundii GN346; format: cell-based; details: Citrobacter freundii; C. freundii GN346 (lactamase-producing strain); 10^6 CFU/ml, 37° C., 16 hours; read-out: Minimum Inhibitory Concentration (MIC)
# Method: as §1
# [11] = tested on: S. aureus JS1; experiment: agar plate dilution method, MIC against S. aureus JS1; format: cell-based; details: Staphylococcus aureus, read-out: Minimum Inhibitory Concentration (MIC)
# Method: as §1
# [12] = tested on: Ps. aeruginosa IFO3445; experiment: agar plate dilution method, MIC against Ps. aeruginosa IFO3445; format: cell-based; details: Pseudomonas aeruginosa, IFO3445, 16 h, read-out: Minimum Inhibitory Concentration (MIC)
# Method: as §1
# [13] = tested on: S. marcescens No. 16-2; experiment: agar plate dilution method, MIC against S. marcescens No. 16-2; format: cell-based; details: Serratia marcescens, NO.162, 16 h, read-out: Minimum Inhibitory Concentration (MIC)
# Method: as §1
# [14] = tested on: S. epidermidis IAM12012; experiment: agar plate dilution method, MIC against S. epidermidis IAM12012; format: cell-based; details: Staphylococcus epidermidis, read-out: Minimum Inhibitory Concentration (MIC)
# Method: as §1
# [15] = tested on: Ps. cepacia 23; experiment: agar plate dilution method, MIC against Ps. cepacia 23; format: cell-based, Pseudomonas cepacia; details: Burkholderia cepacia, 23, 16 h, read-out: Minimum Inhibitory Concentration (MIC)
# Method: as §1
# [16] = tested on: E. cloacae 963; experiment: agar plate dilution method, MIC against E. cloacae 963; format: cell-based; details: read-out: Minimum Inhibitory Concentration (MIC)
# Method: as §1
# [17] = tested on: E. coli CSH(RE45); experiment: agar plate dilution method, MIC against E. coli CSH(RE45); format: cell-based; details: Escherichia coli, 16 h, read-out: Minimum Inhibitory Concentration (MIC)
# Method: as §1
# [18] = tested on: M. luteus ATCC9341; experiment: agar plate dilution method, MIC against M. luteus ATCC9341; format: cell-based; details: Micrococcus luteus; M. luteus ATCC9341; 10^6 CFU/ml, 37° C., 16 hours; read-out: Minimum Inhibitory Concentration (MIC)
# Method: as §1
# [19] = tested on: S. aureus BB5703; experiment: agar plate dilution method, MIC against S. aureus BB5703; format: cell-based; details: Staphylococcus aureus, BB5703, 16 h, read-out: Minimum Inhibitory Concentration (MIC)
# Method: as §1
# [20] = tested on: M. morganii GN5407; experiment: agar plate dilution method, MIC against M. morganii GN5407; format: cell-based; details: Morganella morganii; M. morganii GN5407 (lactamase-producing strain); 10^6 CFU/ml, 37° C., 16 hours; read-out: Minimum Inhibitory Concentration (MIC)
# Method: as §1
# [21] = tested on: A. calcoaceticus No. 4; experiment: agar plate dilution method, MIC against A. calcoaceticus No. 4; format: cell-based; details: Acinetobacter calcoaceticus, read-out: Minimum Inhibitory Concentration (MIC)
# Method: as §1
# [22] = tested on: E. coli CSH2 (RK1); experiment: agar plate dilution method, MIC against E. coli CSH2 (RK1); format: cell-based; details: Escherichia coli, 16 h, read-out: Minimum Inhibitory Concentration (MIC)
# Method: as §1
# [23] = tested on: P. vulgaris No. 33; experiment: agar plate dilution method, MIC against P. vulgaris No. 33; format: cell-based; details: Proteus vulgaris; P. vulgaris No. 33 (lactamase-producing strain); 10^6 CFU/ml, 37° C., 16 hours; read-out: Minimum Inhibitory Concentration (MIC)
# Method: as §1
# [24] = tested on: K. pneumoniae PCI-602; experiment: agar plate dilution method, MIC against K. pneumoniae PCI-602; format: cell-based; details: Klebsiella pneumoniae, PCI602, 16 h, read-out: Minimum Inhibitory Concentration (MIC)
# Method: as §1
# [25] = tested on: E. coli GN5482; experiment: agar plate dilution method, MIC against E. coli GN5482; format: cell-based; details: Escherichia coli; E. coli GN5482 (lactamase-producing strain); 10^6 CFU/ml, 37° C., 16 hours; read-out: Minimum Inhibitory Concentration (MIC)
# Method: as §1
# [26] = tested on: E. cloacae Nek 39; experiment: agar plate dilution method, MIC against E. cloacae Nek 39; format: cell-based; details: Enterobacter cloacae, NEK39; E. cloacae Nek 39 (lactamase-producing strain); 10^6 CFU/ml, 37° C., 16 hours; read-out: Minimum Inhibitory Concentration (MIC)
# Method: as §1
# [27] = tested on: P. vulgaris HX-19; experiment: agar plate dilution method, MIC against P. vulgaris HX-19; format: cell-based; details: Proteus vulgaris, HX19, 16 h, read-out: Minimum Inhibitory Concentration (MIC)
# Method: as §1
Compound,MIC [1],MIC [2],MIC [4],MIC [5],MIC [6],MIC [8],MIC [9],MIC [10],MIC [12],MIC [13],MIC [15],MIC [17],MIC [18],MIC [19],MIC [20],MIC [22],MIC [23],MIC [24],MIC [25],MIC [26],also measured
"Nc1nc(/C(=N/Oc2ccccc2)C(=O)NC2C(=O)N3C(C(=O)[O-])=C(CSc4cc[n+](CC(=O)O)cc4)CSC23)cs1 (stereo not drawn) [Example 7, sodium 7-[2-(2-aminothiazol-4-yl)-2-phenoxyiminoacetamido]-3-(1-carboxylatemethylpyridinio-4-yl)thiomethYl-3-cephem-4-carboxylate (syn-isomer)]",0.39 µg/mL,> 100 µg/mL,0.78 µg/mL,25 µg/mL,3.12 µg/mL,> 100 µg/mL,0.78 µg/mL,50 µg/mL,12.5 µg/mL,12.5 µg/mL,3.12 µg/mL,0.78 µg/mL,0.1 µg/mL,3.12 µg/mL,0.78 µg/mL,0.78 µg/mL,0.78 µg/mL,0.025 µg/mL,1.56 µg/mL,12.5 µg/mL,"MIC ([3]; AK109, Ps. aeruginosa AK 109, 10^6 CFU/ml, 37° C., 16 hours): 25 µg/mL; MIC ([7]; GN346, 16 h): 1.56 µg/mL; MIC ([11]; JS1, 16 h): 12.5 µg/mL; MIC ([14]; IAM12012, 16 h): 0.2 µg/mL; MIC ([16]; Enterobacter cloacae, 963, 16 h): 3.12 µg/mL; MIC ([21]; NO.4, 16 h): 3.12 µg/mL; MIC [27]: < 0.006 µg/mL"
"CCON=C(C(=O)NC1C(=O)N2C(C(=O)[O-])=C(CSc3cc[n+](CC(=O)O)cc3)CSC12)c1csc(N)n1 (stereo not drawn) [Reference Example A, sodium 7-[2-(2-aminothiazol-4-yl)-2-ethoxyiminoacetamido]-3-(1-carboxylatemethylpyridinio-4-yl)thiomethyl-3-cephem-4-carboxylate, reference compound]",0.39 µg/mL,> 100 µg/mL,0.05 µg/mL,3.12 µg/mL,0.05 µg/mL,> 100 µg/mL,0.05 µg/mL,25 µg/mL,6.25 µg/mL,6.25 µg/mL,6.25 µg/mL,0.05 µg/mL,0.1 µg/mL,3.12 µg/mL,0.05 µg/mL,0.025 µg/mL,0.05 µg/mL,< 0.006 µg/mL,0.2 µg/mL,1.56 µg/mL,"MIC ([3]; AK109, 16 h): 12.5 µg/mL; MIC ([7]; C. freundii GN346/16, 10^6 CFU/ml, 37° C., 16 hours): 0.1 µg/mL; MIC ([11]; S. aureus JS1 (methicilline resistant; lactamase-producing strain), 10^6 CFU/ml, 37° C., 16 hours): 100 µg/mL; MIC ([14]; S. epidermidis IAM12012, 10^6 CFU/ml, 37° C., 16 hours): 0.05 µg/mL; MIC ([16]; Enterobacter cloacae, E. cloacae 963, 10^6 CFU/ml, 37° C., 16 hours): 0.1 µg/mL; MIC ([21]; A. calcoaceticus No. 4, 10^6 CFU/ml, 37° C., 16 hours): 100 µg/mL; MIC [27]: < 0.006 µg/mL"
